Tests used:
[1] = target: CSK protein (Homo sapiens (Human), UniProt P41240); experiment: CSK Inhibition Assay; format: biochemical
Description: Test compound was dissolved in DMSO at 10 mM. 45 uL of compound was transferred into a 384-well compound source plate (LABCYTE cat #P-05525) and serially diluted at 1:3 ratio to create a 11-point dilutions. The same volume of DMSO was adopted as high control. 20 nL of these compounds DMSO dilutes were dispensed into a new 384-well assay plate by Echo 550. […] 15 uL of kinase assay buffer containing CSK protein and substrate was transferred to assay plate and incubated at RT for 30 minutes. Kinase assay buffer supplemented with substrate peptides was employed as low control to monitor the background. 4 μM of ATP was prepared in kinase assay buffer and 5 μL of ATP solution was added to each well to start the reaction. The assay plate was incubated at 25° C. for 90 minutes and the reaction was stopped by adding 40 μL of 0.5 M EDTA.
(§1) Phosphorylated fluorescent-tagged peptides were differentiated from non-phosphorylated peptides by separating using Caliper EZ Reader II and the detection was directly converted to conversion ratio.
(§2) For estimation of IC50, the % substrate conversion values are transformed to % Inhibition Ratio by applying the following equation: […]

[2] = target: LCK protein (Homo sapiens (Human), UniProt P06239); experiment: LCK Inhibition Assay; format: biochemical
LCK protein, sequence (P06239 whole entry): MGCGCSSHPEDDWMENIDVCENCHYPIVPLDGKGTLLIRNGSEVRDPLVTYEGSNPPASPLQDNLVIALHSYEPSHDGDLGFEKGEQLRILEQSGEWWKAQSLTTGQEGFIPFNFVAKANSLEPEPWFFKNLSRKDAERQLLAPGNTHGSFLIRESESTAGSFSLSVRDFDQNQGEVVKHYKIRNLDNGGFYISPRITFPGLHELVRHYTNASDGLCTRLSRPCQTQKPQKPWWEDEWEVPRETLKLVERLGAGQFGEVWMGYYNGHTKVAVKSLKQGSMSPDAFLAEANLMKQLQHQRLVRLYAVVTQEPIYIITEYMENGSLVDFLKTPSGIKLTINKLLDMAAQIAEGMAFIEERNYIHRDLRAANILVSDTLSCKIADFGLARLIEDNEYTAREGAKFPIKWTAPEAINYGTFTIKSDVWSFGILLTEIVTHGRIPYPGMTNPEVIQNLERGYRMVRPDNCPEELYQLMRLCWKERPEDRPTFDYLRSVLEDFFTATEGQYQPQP
Description: Test compound was dissolved in DMSO at 10 mM. 45 uL of compound was transfer into a 384-well compound source plate (LABCYTE cat #P-05525) and serially diluted at 1:3 ratio to create a 11-point dilutions. The same volume of DMSO was adopted as high control. 20 nL of these compounds DMSO dilutes were dispensed into a new 384-well assay plate by Echo 550. LCK protein (0.50 nM, Cama Biosciences, cat #08-170), florescent labeled substrate FLPeptide4 (2 μM, PerkinElmer, cat #760348) was prepared in kinase assay buffer (50 mM HEPES (pH 7.5), 10 mM MgCl2, 0.01% Brij-35, 2 mM DTT and 0.005 mg/ml BSA). 15 uL of kinase assay buffer containing LCK protein and substrate was transferred to assay plate and incubate at RT for 30 minutes. Kinase assay buffer supplemented with substrate peptides was employed as low control to monitor the background. 400 μM ATP was prepared in kinase assay buffer and 5 μL of ATP solution was added to each well to start the reaction. The assay plate was incubated at 25° C. for 90 minutes and the reaction was stopped by adding 40 μL of 0.5 M EDTA.
as §1, §2

CSK protein, sequence (P41240 whole entry): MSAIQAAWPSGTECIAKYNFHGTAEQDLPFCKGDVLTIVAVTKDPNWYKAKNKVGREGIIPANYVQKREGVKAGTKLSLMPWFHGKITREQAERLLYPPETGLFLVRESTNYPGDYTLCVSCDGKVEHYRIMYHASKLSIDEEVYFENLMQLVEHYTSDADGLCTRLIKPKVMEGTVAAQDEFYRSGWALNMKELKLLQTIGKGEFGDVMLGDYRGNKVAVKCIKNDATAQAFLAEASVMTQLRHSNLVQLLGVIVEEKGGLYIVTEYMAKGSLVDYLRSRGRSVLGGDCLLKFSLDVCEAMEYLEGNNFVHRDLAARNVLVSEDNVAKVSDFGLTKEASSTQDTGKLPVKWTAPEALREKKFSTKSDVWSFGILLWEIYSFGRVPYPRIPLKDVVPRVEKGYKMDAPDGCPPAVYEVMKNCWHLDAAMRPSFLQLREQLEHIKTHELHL

| SMILES | IC50 [1] [µM] | IC50 [2] [µM] |
| --- | --- | --- |
| CCN(CC)c1nc(-c2cccc(NS(=O)(=O)c3c(F)cccc3F)c2F)c(-c2ccnc(NC)n2)s1 [compound 153] | 0.0074 | 0.1 to 1 |
| CNc1nccc(-c2sc(-c3cncc(F)c3)nc2-c2cccc(NS(=O)(=O)c3c(F)cc(OC)cc3F)c2F)n1 [Compound 64] | 0.0183 | > 1 |
| Nc1nccc(-c2c(-c3cccc(NS(=O)(=O)c4c(F)cccc4F)c3F)nc3cc(C(F)(F)F)ccn23)n1 [Compound 105] | 0.4 | > 1 |
| CNc1nccc(-c2sc(-c3cncnc3)nc2-c2cccc(NS(=O)(=O)c3c(F)ccc(C)c3F)c2F)n1 [Compound 73] | 0.0148 | > 1 |
| O=S(=O)(Nc1cccc(-c2nc(-c3cncc(F)c3)sc2-c2ccnc(NCCO)n2)c1F)c1c(F)cccc1F [Compound 66] | 0.0196 | > 1 |
| CNc1nccc(-c2sc(N3CCOCC3)nc2-c2cccc(NS(=O)(=O)c3c(F)cccc3F)c2F)n1 [Compound 116] | 0.0135 | 0.1 to 1 |
| Cc1ncc(-c2nc(-c3cccc(NS(=O)(=O)c4c(Cl)cccc4Cl)c3F)c(-c3ccnc(NC4CC4)n3)s2)cn1 [Compound 149] | 0.0045 | > 1 |
| CNc1nccc(-c2c(-c3cccc(NS(=O)(=O)c4c(Cl)ccc(C)c4Cl)c3F)nc3cc(OC)ccn23)n1 [Compound 146] | 0.0413 | > 1 |
| O=S(=O)(Nc1cccc(-c2nc(-c3cncc(F)c3)sc2-c2ccnc(NCCO)n2)c1F)c1c(F)ccc(Cl)c1F [Compound 172] | 0.0054 | > 1 |
| CNc1nccc(-c2sc(-c3ccccc3)nc2-c2cccc(NS(=O)(=O)c3c(F)cccc3F)c2F)n1 [Compound 46] | 0.0273 | > 1 |
| Cc1ccc(Cl)c(S(=O)(=O)Nc2cccc(-c3nc(-c4cncc(F)c4)sc3-c3ccnc(NCCO)n3)c2F)c1Cl [Compound 138] | 0.0085 | > 1 |
| CNc1nccc(-c2sc(-c3ccccc3)nc2-c2cccc(NS(=O)(=O)c3c(F)ccc(C)c3F)c2F)n1 [Compound 51] | 0.0331 | > 1 |
| CNc1nccc(-c2sc(-c3ccc(F)cn3)nc2-c2cccc(NS(=O)(=O)c3c(F)ccc(Cl)c3F)c2F)n1 [Compound 58] | 0.0315 | > 1 |
| Nc1nccc(-c2c(-c3cccc(NS(=O)(=O)c4c(F)cccc4F)c3F)nc(-c3ccccc3)n2O)n1 [Compound 84] | 0.133 | > 1 |
| Nc1nccc(-c2[nH]c(-c3ccccc3)nc2-c2cccc(NS(=O)(=O)c3c(F)cccc3F)c2F)n1 [Compound 85] | 0.0332 | 0.1 to 1 |
| Nc1nccc(-c2sc(C3CCNCC3)nc2-c2cccc(NS(=O)(=O)c3c(F)cccc3F)c2F)n1 [Compound 122] | 0.634 | 0.1 to 1 |
| N#Cc1ccn2c(-c3ccnc(N)n3)c(-c3cccc(NS(=O)(=O)c4c(F)cccc4F)c3F)nc2c1 [Compound 101] | 0.436 | > 1 |
| CNc1nccc(-c2sc(-c3cnc(C)cn3)nc2-c2cccc(NS(=O)(=O)c3c(F)ccc(C)c3F)c2F)n1 [Compound 144] | 0.0239 | > 1 |
| COc1ccccc1Nc1nccc(-c2sc(-c3ccc(F)cn3)nc2-c2cccc(NS(=O)(=O)c3c(F)cccc3F)c2F)n1 [Compound 33] | 0.595 | > 1 |
| CNC(=O)N[C@@H](C)CNc1nccc(-c2sc(-c3ccccc3)nc2-c2cccc(NS(=O)(=O)c3c(F)cccc3F)c2F)n1 [compound 45] | 0.0413 | > 1 |
| CNc1nccc(-c2sc(-c3cncnc3)nc2-c2cccc(NS(=O)(=O)c3c(F)cccc3F)c2F)n1 [Compound 63] | 0.0206 | > 1 |

| SMILES | IC50 [1] [µM] | IC50 [2] [µM] |
| --- | --- | --- |
| CCOc1ccn2c(-c3ccnc(N)n3)c(-c3cccc(NS(=O)(=O)c4c(F)cccc4F)c3F)nc2c1 [Compound 97] | 0.0982 | > 1 |
| Nc1nccc(-c2sc(-c3cnccn3)nc2-c2cccc(NS(=O)(=O)c3c(F)cccc3F)c2F)n1 [compound 39] | 0.0339 | > 1 |
| O=S(=O)(Nc1cccc(-c2nc(N3CCC3)sc2-c2ccnc(NC3CC3)n2)c1F)c1c(F)ccc(Cl)c1F [Compound 186] | 0.0041 | > 1 |
| Nc1nccc(-c2sc(-c3cncnc3)nc2-c2cccc(NS(=O)(=O)c3c(F)cccc3F)c2F)n1 [Compound 29] | 0.0205 | > 1 |
| Nc1nccc(-c2sc(-c3ccc(F)cn3)nc2-c2cccc(NS(=O)(=O)c3c(Cl)cccc3Cl)c2F)n1 [Compound 132] | 0.062 | 0.1 to 1 |
| O=S(=O)(Nc1cccc(-c2nc(N3CCCC3)sc2-c2ccnc(NC3CC3)n2)c1F)c1c(F)ccc(Cl)c1F [Compound 184] | 0.0052 | > 1 |
| CNc1nccc(-c2sc(-c3cncc(C(F)(F)F)c3)nc2-c2cccc(NS(=O)(=O)c3c(F)cccc3F)c2F)n1 [Compound 75] | 0.0739 | > 1 |
| CNc1nccc(-c2sc(-c3cncc(F)c3)nc2-c2cccc(NS(=O)(=O)c3c(F)ccc(C)c3F)c2F)n1 [Compound 53] | 0.0156 | > 1 |
| COc1ccn2c(-c3ccnc(NCCO)n3)c(-c3cccc(NS(=O)(=O)c4c(Cl)ccc(C)c4Cl)c3F)nc2c1 [Compound 147] | 0.0303 | > 1 |
| Nc1nccc(-c2sc(-c3ccc(F)cc3)nc2-c2cccc(NS(=O)(=O)c3c(F)cccc3F)c2F)n1 [Compound 14] | 0.0553 | > 1 |
| Cc1ncc(-c2nc(-c3cccc(NS(=O)(=O)c4c(Cl)ccc(C)c4Cl)c3F)c(-c3ccnc(N)n3)s2)cn1 [Compound 142] | 0.0105 | > 1 |
| CNc1nccc(-c2c(-c3cccc(NS(=O)(=O)c4c(F)ccc(C)c4F)c3F)nc3cc(OC)ccn23)n1 [Compound 103] | 0.0518 | > 1 |
| Nc1nccc(-c2sc(-c3ccccc3)nc2-c2cccc(NS(=O)(=O)c3c(F)cccc3F)c2)n1 [Compound 18] | 0.144 | > 1 |
| CNc1nccc(-c2sc(N3CCCC3)nc2-c2cccc(NS(=O)(=O)c3c(F)cccc3F)c2F)n1 [Compound 128] | 0.012 | > 1 |
| Cc1ccc(F)c(S(=O)(=O)Nc2cccc(-c3nc(-c4cc(F)ccn4)sc3-c3ccnc(N)n3)c2F)c1F [Compound 52] | 0.0195 | > 1 |
| Cc1ccc(Cl)c(S(=O)(=O)Nc2cccc(-c3nc(-c4cncc(F)c4)sc3-c3ccnc(NC4CC4)n3)c2F)c1Cl [Compound 139] | 0.0027 | > 1 |
| CNc1nccc(-c2sc(-c3ccc(F)cn3)nc2-c2cccc(NS(=O)(=O)c3c(F)cc(F)cc3F)c2F)n1 [Compound 77] | 0.0855 | > 1 |
| CCc1ccn2c(-c3ccnc(N)n3)c(-c3cccc(NS(=O)(=O)c4c(F)cccc4F)c3F)nc2c1 [Compound 92] | 0.0892 | > 1 |
| Cc1ccc(-c2nc(-c3cccc(NS(=O)(=O)c4c(F)cccc4F)c3F)c(-c3ccnc(N)n3)s2)nn1 [Compound 13] | 0.051 | > 1 |
| CNc1nccc(-c2c(-c3cccc(NS(=O)(=O)c4c(Cl)cccc4Cl)c3F)nc3cc(OC)ccn23)n1 [Compound 145] | 0.113 | > 1 |
| Nc1nccc(-c2cn(C3CCCCC3)nc2-c2cccc(NS(=O)(=O)c3c(F)cccc3F)c2F)n1 [Compound 110] | 0.221 | > 1 |

From patent US12427146B2, “C-terminal SRC kinase inhibitors” (INVENTISBIO CO., LTD., priority 2018, dated 2025)
